Assay results: the supplement of paper PMC10307832

How the values were obtained:
Experiment in all cases: relative viability (nuclei count vs DMSO), 5 days (fraction); higher = more cells survive
Tosedostat + Foretinib = compound: CC(C)C[C@@H](C(=O)N[C@H](C(=O)OC1CCCC1)c1ccccc1)[C@H](O)C(=O)NO [Tosedostat] + COc1cc2c(Oc3ccc(NC(=O)C4(C(=O)Nc5ccc(F)cc5)CC4)cc3F)ccnc2cc1OCCCN1CCOCC1 [Foretinib] (partner 0.25 µM)
Procedure, shortened: (§1)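 Relative viability equals treated-well nuclei counts divided by vehicle-well nuclei counts. Counts came from 4× images of lung cancer cell lines grown in 1536-well plates for 5 days after pin-tool dosing on the day after seeding. Dosing used one drug alone or a fixed anchor-drug dose plus five library-drug doses (not always all listed) in √10 steps, and values are medians of duplicate plates.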

Tosedostat + Vorinostat = compound: CC(C)C[C@@H](C(=O)N[C@H](C(=O)OC1CCCC1)c1ccccc1)[C@H](O)C(=O)NO [Tosedostat] + O=C(CCCCCCC(=O)Nc1ccccc1)NO [Vorinostat] (partner 1 µM)
Procedure, shortened: as §1

[1] = compound: CC1=NN=C(O1)C2=NN=C(C=C2)N3CCC(CC3)OC4=C(C=CC(=C4)F)Cl + CC(=O)Nc1cccc(-n2c(=O)n(C3CC3)c(=O)c3c(Nc4ccc(I)cc4F)n(C)c(=O)c(C)c32)c1 [Trametinib] (partner 0.02 µM)
Procedure, shortened: as §1

[2] = compound: CC1=NN=C(O1)C2=NN=C(C=C2)N3CCC(CC3)OC4=C(C=CC(=C4)F)Cl + CC1(C)CCC(c2ccc(Cl)cc2)=C(CN2CCN(c3ccc(C(=O)NS(=O)(=O)c4ccc(N[C@H](CCN5CCOCC5)CSc5ccccc5)c(S(=O)(=O)C(F)(F)F)c4)cc3)CC2)C1 [Navitoclax] (partner 0.5 µM)
Procedure, shortened: as §1

| Cell Line | relative viability (Tosedostat + Foretinib; first compound 0.02 µM) | relative viability (Tosedostat + Foretinib; first compound 0.06325 µM) | relative viability (Tosedostat + Foretinib; first compound 0.2 µM) | relative viability (Tosedostat + Foretinib; first compound 0.6325 µM) | relative viability (Tosedostat + Foretinib; first compound 2 µM) | relative viability (Tosedostat + Vorinostat; first compound 0.02 µM) | relative viability (Tosedostat + Vorinostat; first compound 0.06325 µM) | relative viability (Tosedostat + Vorinostat; first compound 0.2 µM) | relative viability (Tosedostat + Vorinostat; first compound 0.6325 µM) | relative viability (Tosedostat + Vorinostat; first compound 2 µM) | relative viability ([1]; first compound 0.253 µM) | relative viability ([1]; first compound 0.8 µM) | relative viability ([1]; first compound 2.53 µM) | relative viability ([1]; first compound 8 µM) | relative viability ([2]; first compound 0.253 µM) | relative viability ([2]; first compound 0.8 µM) | relative viability ([2]; first compound 2.53 µM) | relative viability ([2]; first compound 8 µM) |
| --- | --- | --- | --- | --- | --- | --- | --- | --- | --- | --- | --- | --- | --- | --- | --- | --- | --- | --- |
| SK-MES-1 | 0.691 | 0.889 | 0.914 | 0.873 | 0.86 | 1.13 | 1.03 | 0.963 | 1.1 | 1 | 0.486 | 0.573 | 0.507 | 0.501 | 0.995 | 1.04 | 1.03 | 0.929 |
| SW 1573 | 0.877 | 0.906 | 0.924 | 0.825 | 0.974 | 0.984 | 0.718 | 0.81 | 0.671 | 0.614 | 0.512 | 0.43 | 0.445 | 0.306 | 1.03 | 0.84 | 0.851 | 0.922 |
